According to patent US11993599B2, “Therapeutic compounds” (Genentech, Inc., priority 2021, dated 2024):

What was measured:
Format in all cases: cell-based
BRG1 = target: T1, BRG1 (Homo sapiens, UniProt P51532); assay: Immunofluorescence assay for BRG1 degradation in SW1573 cells; settings: 20 hours incubation; for DC50: immunofluorescence mean nuclear signal, read-out: BRG1 IF Degradation IC50; for Dmax: SW1573, 20 h, normalized to a known degrader control, read-out: BRG1 IF Degradation Sinf (%)
T1 construct: either BRM primary antibody (Cell signaling Cat #11966) or BRG primary antibody (Abcam, ab 110641); endogenous in cells; host or cells: SW1573
T1 sequence (P51532 whole entry): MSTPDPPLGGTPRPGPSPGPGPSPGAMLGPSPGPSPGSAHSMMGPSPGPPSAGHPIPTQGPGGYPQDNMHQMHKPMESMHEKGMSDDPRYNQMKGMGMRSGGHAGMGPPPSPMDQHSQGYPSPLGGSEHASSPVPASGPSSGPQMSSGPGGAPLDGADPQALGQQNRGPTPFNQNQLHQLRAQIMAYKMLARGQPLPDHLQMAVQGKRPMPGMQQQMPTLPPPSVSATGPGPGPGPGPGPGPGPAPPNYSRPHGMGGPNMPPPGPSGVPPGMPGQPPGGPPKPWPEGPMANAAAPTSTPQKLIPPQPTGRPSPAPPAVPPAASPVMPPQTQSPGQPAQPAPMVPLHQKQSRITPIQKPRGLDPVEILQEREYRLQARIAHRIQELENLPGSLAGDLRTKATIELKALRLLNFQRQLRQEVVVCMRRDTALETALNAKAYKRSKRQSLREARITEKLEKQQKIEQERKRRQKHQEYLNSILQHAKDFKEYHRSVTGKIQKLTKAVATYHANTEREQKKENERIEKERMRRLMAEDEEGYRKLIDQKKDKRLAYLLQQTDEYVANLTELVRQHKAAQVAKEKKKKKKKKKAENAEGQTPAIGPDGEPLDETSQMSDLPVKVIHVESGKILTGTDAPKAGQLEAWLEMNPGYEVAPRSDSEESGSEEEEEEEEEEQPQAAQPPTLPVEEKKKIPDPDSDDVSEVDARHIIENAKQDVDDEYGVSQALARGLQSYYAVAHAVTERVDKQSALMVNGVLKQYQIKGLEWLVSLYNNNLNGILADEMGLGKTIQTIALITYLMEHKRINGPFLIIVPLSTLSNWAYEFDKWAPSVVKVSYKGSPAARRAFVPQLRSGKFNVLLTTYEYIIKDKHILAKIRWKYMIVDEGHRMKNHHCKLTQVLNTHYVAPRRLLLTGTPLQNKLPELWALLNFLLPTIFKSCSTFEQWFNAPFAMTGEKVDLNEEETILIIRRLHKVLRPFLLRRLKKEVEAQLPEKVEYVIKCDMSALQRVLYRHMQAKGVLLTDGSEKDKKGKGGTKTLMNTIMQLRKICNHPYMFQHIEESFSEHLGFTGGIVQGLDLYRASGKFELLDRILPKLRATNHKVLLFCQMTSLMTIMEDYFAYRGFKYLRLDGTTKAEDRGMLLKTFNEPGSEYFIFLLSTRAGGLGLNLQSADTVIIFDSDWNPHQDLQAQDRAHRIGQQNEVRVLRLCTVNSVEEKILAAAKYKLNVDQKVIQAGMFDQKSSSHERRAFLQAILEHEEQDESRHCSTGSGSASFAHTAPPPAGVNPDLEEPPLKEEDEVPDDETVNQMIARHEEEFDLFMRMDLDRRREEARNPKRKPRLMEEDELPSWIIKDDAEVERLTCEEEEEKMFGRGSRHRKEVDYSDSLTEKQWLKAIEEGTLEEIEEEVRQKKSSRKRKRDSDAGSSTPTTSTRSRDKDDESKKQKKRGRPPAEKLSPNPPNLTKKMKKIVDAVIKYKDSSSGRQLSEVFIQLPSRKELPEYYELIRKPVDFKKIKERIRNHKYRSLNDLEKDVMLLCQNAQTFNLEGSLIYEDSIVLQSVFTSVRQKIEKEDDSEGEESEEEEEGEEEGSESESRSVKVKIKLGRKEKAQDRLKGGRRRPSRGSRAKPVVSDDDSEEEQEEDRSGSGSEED
Method in brief: (§1)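 Degradation measured as loss of nuclear BRM or BRG1 staining in SW1573 cells after 20 h compound exposure. Signal per cell was imaged and normalized to a known degrader; curves with floating maximum yielded IC50 and Dmax.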

BRM [1] = target: T2, BRM (Homo sapiens, UniProt P51531); assay: Immunofluorescence assay for BRM degradation in SW1573 cells; design: treated overnight at 4° C. with either BRM primary antibody (Cell signaling Cat #11966) or BRG primary antibody; endogenous in cells; host or cells: SW1573; settings: 20 hours incubation; for DC50: immunofluorescence mean nuclear signal, read-out: BRM IF Degradation IC50; for BRM IF Degradation Sinf (%): normalized to a known degrader control
T2 sequence (P51531 whole entry): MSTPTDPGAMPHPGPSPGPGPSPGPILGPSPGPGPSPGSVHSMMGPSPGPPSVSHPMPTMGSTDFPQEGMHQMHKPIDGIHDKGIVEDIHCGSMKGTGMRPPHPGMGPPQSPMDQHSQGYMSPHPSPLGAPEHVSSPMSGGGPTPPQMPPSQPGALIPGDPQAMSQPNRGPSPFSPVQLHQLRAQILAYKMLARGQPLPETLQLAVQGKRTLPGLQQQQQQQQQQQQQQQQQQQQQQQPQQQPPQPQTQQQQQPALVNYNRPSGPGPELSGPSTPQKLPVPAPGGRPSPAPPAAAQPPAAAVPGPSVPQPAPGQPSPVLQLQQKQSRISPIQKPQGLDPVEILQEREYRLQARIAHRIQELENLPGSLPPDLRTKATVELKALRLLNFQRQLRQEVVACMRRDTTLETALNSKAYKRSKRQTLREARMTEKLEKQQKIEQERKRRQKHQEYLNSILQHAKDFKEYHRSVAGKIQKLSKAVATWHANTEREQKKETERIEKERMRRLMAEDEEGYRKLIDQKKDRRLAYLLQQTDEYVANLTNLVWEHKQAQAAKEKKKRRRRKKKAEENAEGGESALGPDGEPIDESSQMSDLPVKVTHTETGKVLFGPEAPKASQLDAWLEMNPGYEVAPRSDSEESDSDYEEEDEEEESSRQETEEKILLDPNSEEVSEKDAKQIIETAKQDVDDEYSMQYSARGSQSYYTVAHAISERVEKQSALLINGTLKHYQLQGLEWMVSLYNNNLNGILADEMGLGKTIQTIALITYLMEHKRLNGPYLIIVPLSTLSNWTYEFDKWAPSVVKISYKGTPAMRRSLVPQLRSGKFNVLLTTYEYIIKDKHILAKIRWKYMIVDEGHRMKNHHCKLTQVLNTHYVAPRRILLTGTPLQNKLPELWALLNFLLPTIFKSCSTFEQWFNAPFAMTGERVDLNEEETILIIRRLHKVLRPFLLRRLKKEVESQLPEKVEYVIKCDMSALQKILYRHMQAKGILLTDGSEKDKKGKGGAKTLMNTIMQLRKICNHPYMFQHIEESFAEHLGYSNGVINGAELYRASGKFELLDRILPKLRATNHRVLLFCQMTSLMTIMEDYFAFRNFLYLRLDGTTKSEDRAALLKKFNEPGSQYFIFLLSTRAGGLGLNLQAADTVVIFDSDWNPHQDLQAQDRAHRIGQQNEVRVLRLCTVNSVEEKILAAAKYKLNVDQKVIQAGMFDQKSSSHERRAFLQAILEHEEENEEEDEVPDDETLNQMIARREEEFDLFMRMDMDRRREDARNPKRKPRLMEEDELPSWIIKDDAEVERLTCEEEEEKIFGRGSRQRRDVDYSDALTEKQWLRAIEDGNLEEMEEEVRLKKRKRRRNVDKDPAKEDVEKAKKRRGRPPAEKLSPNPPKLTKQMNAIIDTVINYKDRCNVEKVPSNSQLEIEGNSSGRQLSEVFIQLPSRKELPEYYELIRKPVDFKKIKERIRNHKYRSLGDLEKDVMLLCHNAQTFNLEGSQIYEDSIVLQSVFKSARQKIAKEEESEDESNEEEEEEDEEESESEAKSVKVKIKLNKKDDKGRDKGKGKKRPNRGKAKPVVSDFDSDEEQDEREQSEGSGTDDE
Method in brief: as §1

BRM [2] = target: T2, BRM; assay: HiBIT nanoluciferase complementation screen for BRM degraders; settings: 18 hours, BRM-HiBIT KI Hela cells, luminescence normalized: DMSO only = 0%, no cells = −100%; for Median HiBiT activity 1 μM: compound 1 μM; for Median HiBiT activity 10 μM: compound 10 μM
Source text: Example B-1: HiBIT Nanoluciferase Complementation Screen for BRM Degraders
To assess BRM degradation, compounds were screened for their effect of BRM levels using the HiBIT nanoluciferase complementation strategy developed at Promega. In brief, a HELA cell line that was genetically modified via CRISPR/CAS9 was used to fuse the HiBIT sequence at the 3′ end of BRM (BRM-HiBIT KI Hela). BRM protein levels were then detected using the Nano-Glo HiBIT lytic detection reagent (Promega).
The screened compounds were plated into a white 384-well plate at 10 μM and 1 μM in 25 nL DMSO using an Echo dispenser (Labcyte). BRM-HiBIT KI Hela cells were seeded in the compound plate at 5000 cell per well at 25 μl in DMEM growth media (containing 10% FBS, 1% Glutamax (GIBCO cat #31053-028), lx Penicillin-Streptomycin (ROCHE, cat #1107444001), 4.5 g/L D-Glucose, and no phenol red). After incubation with compounds for 18 hours at 37° C., cell viability was assessed by the addition of 5 μl Cell Titer-Fluor reagent (Promega). After 30 s of mixing on an orbital shaker, and 30 minutes incubation at 37° C., fluorescence was measured with an INFINITE F500 (Tecan) (380-400 nm excitation, 505 nm emission). Next, to assess BRM HiBIT levels, 30 μl of Nano-Glo HiBIT lytic detection reagent (Promega) containing 1:50 Nano-Glo HiBIT lytic substrate and 1:100 LgBIT protein per ml of lytic buffer was added. After shaking on an orbital shaker at 350 rpm for 10 minutes, luminescence was measured on the INFINITE F500 (Tecan). To assess compound effects, luminescence signal was normalized with the mean of wells treated with DMSO only set to 0% and the mean of wells containing no cells set to −100%. Note that, in Table 4, the “Compound Number” corresponds to that used in Table 1.

C[C@@H](N)C#Cc1cc(N2C3CCC2CN(c2cc(-c4ccccc4O)nnc2N)C3)ccn1 [Compound 23, 2-(6-amino-5-(8-(2-((R)-3-aminobut-1-yn-1-yl)pyridin-4-yl)-3,8-diazabicyclo[3.2.1]octan-3-yl)pyridazin-3-yl)phenol]
DC50 (BRG1): 0.01 to 0.1 µM | Dmax (BRG1): 30 to 70% | DC50 (BRM [1]): < 0.01 µM | BRM IF Degradation Sinf (%) (BRM [1]): E (E indicates −30%-−70%) | Median HiBiT activity 1 μM (BRM [2]): −29.3818% | Median HiBiT activity 10 μM (BRM [2]): −58.9213%

Nc1nnc(-c2ccccc2O)cc1N1CC2CCC(C1)N2c1ccnc(C#CCN2CCCC2)c1 [Compound 2, 2-(6-amino-5-(8-(2-(3-(pyrrolidin-1-yl)prop-1-yn-1-yl)pyridin-4-yl)-3,8-diazabicyclo[3.2.1]octan-3-yl)pyridazin-3-yl)phenol]
DC50 (BRG1): < 0.01 µM | Dmax (BRG1): 30 to 70% | DC50 (BRM [1]): < 0.01 µM | BRM IF Degradation Sinf (%) (BRM [1]): E (E indicates −30%-−70%) | Median HiBiT activity 1 μM (BRM [2]): −73.6048% | Median HiBiT activity 10 μM (BRM [2]): −28.0898%

Nc1nnc(-c2ccccc2O)cc1N1CC2CCC(C1)N2c1ccnc(C#CCN2CCNCC2)c1 [Compound 28, 2-(6-amino-5-(8-(2-(3-(piperazin-1-yl)prop-1-yn-1-yl)pyridin-4-yl)-3,8-diazabicyclo[3.2.1]octan-3-yl)pyridazin-3-yl)phenol]
DC50 (BRG1): > 0.1 µM | DC50 (BRM [1]): > 0.1 µM | BRM IF Degradation Sinf (%) (BRM [1]): E (E indicates −30%-−70%) | Median HiBiT activity 1 μM (BRM [2]): −23.3156% | Median HiBiT activity 10 μM (BRM [2]): −44.9026%

Nc1nnc(-c2ccccc2O)cc1N1CC2CCC(C1)N2c1ccnc(C#CC2CNCCO2)c1 (centres unmarked) [Compound 7, 2-(6-amino-5-(8-(2-(morpholin-2-ylethynyl)pyridin-4-yl)-3,8-diazabicyclo[3.2.1]octan-3-yl)pyridazin-3-yl)phenol]
DC50 (BRG1): > 0.1 µM | DC50 (BRM [1]): < 0.01 µM | BRM IF Degradation Sinf (%) (BRM [1]): E (E indicates −30%-−70%) | Median HiBiT activity 1 μM (BRM [2]): −56.5569% | Median HiBiT activity 10 μM (BRM [2]): −25.5864%

Nc1nnc(-c2ccccc2O)cc1N1CC2CCC(C1)N2c1ccnc(C#CC2CCNC2)c1 (centres unmarked) [Compound 25, 2-(6-amino-5-(8-(2-(pyrrolidin-3-ylethynyl)pyridin-4-yl)-3,8-diazabicyclo[3.2.1]octan-3-yl)pyridazin-3-yl)phenol]
DC50 (BRG1): > 0.1 µM | DC50 (BRM [1]): > 0.1 µM | BRM IF Degradation Sinf (%) (BRM [1]): E (E indicates −30%-−70%) | Median HiBiT activity 1 μM (BRM [2]): −26.7344% | Median HiBiT activity 10 μM (BRM [2]): −55.1975%

Nc1nnc(-c2ccccc2O)cc1N1CC2CCC(C1)N2c1ccnc(C#CCN2CCC(N)C2)c1 (centres unmarked) [Compound 15, 2-(6-amino-5-(8-(2-(3-(3-aminopyrrolidin-1-yl)prop-1-yn-1-yl)pyridin-4-yl)-3,8-diazabicyclo[3.2.1]octan-3-yl)pyridazin-3-yl)phenol]
DC50 (BRG1): > 0.1 µM | Dmax (BRG1): 0 to 30% | DC50 (BRM [1]): > 0.1 µM | BRM IF Degradation Sinf (%) (BRM [1]): E (E indicates −30%-−70%) | Median HiBiT activity 1 μM (BRM [2]): −41.5313% | Median HiBiT activity 10 μM (BRM [2]): −55.0083%

Nc1nnc(-c2ccccc2O)cc1N1CC2CCC(C1)N2c1ccnc(C#CCN2CCOCC2)c1 [Compound 9, 2-(6-amino-5-(8-(2-(3-morpholinoprop-1-yn-1-yl)pyridin-4-yl)-3,8-diazabicyclo[3.2.1]octan-3-yl)pyridazin-3-yl)phenol]
DC50 (BRG1): < 0.01 µM | Dmax (BRG1): 0 to 30% | DC50 (BRM [1]): 0.01 to 0.1 µM | BRM IF Degradation Sinf (%) (BRM [1]): E (E indicates −30%-−70%) | Median HiBiT activity 1 μM (BRM [2]): −50.6553% | Median HiBiT activity 10 μM (BRM [2]): −33.5251%

Nc1nnc(-c2ccccc2O)cc1N1CC2CCC(C1)N2c1ccnc(C#CCC2CCCCN2)c1 (centres unmarked) [Compound 13, 2-(6-amino-5-(8-(2-(3-(piperidin-2-yl)prop-1-yn-1-yl)pyridin-4-yl)-3,8-diazabicyclo[3.2.1]octan-3-yl)pyridazin-3-yl)phenol]
DC50 (BRG1): 0.01 to 0.1 µM | Dmax (BRG1): 0 to 30% | DC50 (BRM [1]): 0.01 to 0.1 µM | BRM IF Degradation Sinf (%) (BRM [1]): E (E indicates −30%-−70%) | Median HiBiT activity 1 μM (BRM [2]): −44.9864% | Median HiBiT activity 10 μM (BRM [2]): −32.1865%

Nc1nnc(-c2ccccc2O)cc1N1CC2CCC(C1)N2c1ccnc(C#CCN2CCS(=O)(=O)CC2)c1 [Compound 18, 4-(3-(4-(3-(3-amino-6-(2-hydroxyphenyl)pyridazin-4-yl)-3,8-diazabicyclo[3.2.1]octan-8-yl)pyridin-2-yl)prop-2-yn-1-yl)thiomorpholine1,1-dioxide]
DC50 (BRG1): > 0.1 µM | DC50 (BRM [1]): > 0.1 µM | BRM IF Degradation Sinf (%) (BRM [1]): E (E indicates −30%-−70%) | Median HiBiT activity 1 μM (BRM [2]): −37.0807% | Median HiBiT activity 10 μM (BRM [2]): −56.4043%

Nc1nnc(-c2ccccc2O)cc1N1CC2CCC(C1)N2c1ccnc(C#CCC2CCCN2)c1 (centres unmarked) [Compound 16, 2-(6-amino-5-(8-(2-(3-(pyrrolidin-2-yl)prop-1-yn-1-yl)pyridin-4-yl)-3,8-diazabicyclo[3.2.1]octan-3-yl)pyridazin-3-yl)phenol]
DC50 (BRG1): 0.01 to 0.1 µM | Dmax (BRG1): 0 to 30% | DC50 (BRM [1]): 0.01 to 0.1 µM | BRM IF Degradation Sinf (%) (BRM [1]): E (E indicates −30%-−70%) | Median HiBiT activity 1 μM (BRM [2]): −38.7074% | Median HiBiT activity 10 μM (BRM [2]): −29.4258%

Nc1nnc(-c2ccccc2O)cc1N1CC2CCC(C1)N2c1ccnc(C#CC2CCOCC2)c1 [Compound 22, 2-(6-amino-5-(8-(2-((tetrahydro-2H-pyran-4-yl)ethynyl)pyridin-4-yl)-3,8-diazabicyclo[3.2.1]octan-3-yl)pyridazin-3-yl)phenol]
DC50 (BRG1): > 0.1 µM | Dmax (BRG1): 0 to 30% | DC50 (BRM [1]): > 0.1 µM | Median HiBiT activity 1 μM (BRM [2]): −30.6701% | Median HiBiT activity 10 μM (BRM [2]): −33.6373%

Nc1nnc(-c2ccccc2O)cc1N1CC2CCC(C1)N2c1ccnc(C#CCN2CCCC(N)C2)c1 (centres unmarked) [Compound 31, 2-(6-amino-5-(8-(2-(3-(3-aminopiperidin-1-yl)prop-1-yn-1-yl)pyridin-4-yl)-3,8-diazabicyclo[3.2.1]octan-3-yl)pyridazin-3-yl)phenol]
DC50 (BRG1): > 0.1 µM | DC50 (BRM [1]): > 0.1 µM | Median HiBiT activity 1 μM (BRM [2]): −16.7799% | Median HiBiT activity 10 μM (BRM [2]): −47.9900%

Nc1nnc(-c2ccccc2O)cc1N1CC2CCC(C1)N2c1ccnc(C#CC2CCCN2)c1 (centres unmarked) [Compound 14, 2-(6-amino-5-(8-(2-(pyrrolidin-2-ylethynyl)pyridin-4-yl)-3,8-diazabicyclo[3.2.1]octan-3-yl)pyridazin-3-yl)phenol]
DC50 (BRG1): 0.01 to 0.1 µM | Dmax (BRG1): 0 to 30% | DC50 (BRM [1]): < 0.01 µM | BRM IF Degradation Sinf (%) (BRM [1]): E (E indicates −30%-−70%) | Median HiBiT activity 1 μM (BRM [2]): −42.9269% | Median HiBiT activity 10 μM (BRM [2]): −50.5501%
